Each structure is given as a SMILES string.

Series [1] can be described thus: Cytotoxicity assay (Cell Counting Kit-8). Particulars: human.
A further series concerns the target SARS-CoV-2 3CL^pro (Severe acute respiratory syndrome coronavirus 2, UniProt P0DTD1). In words: cell-based. Particulars: HEK293 cells with stable 3CL^pro-flag expression, 72 h treatment, densitometry of Western blot; read-out: Dmax (maximum degradation in percentage). (In general: A western blot detects proteins with antibodies after separation by electrophoresis.)

For another series, the system named is HEK293 cells. Nature of the series: Cytotoxicity assay (Cell Counting Kit-8). Conditions: read-out: CC50 (50% cytotoxicity concentration); HEK293, 72 h, CCK8. On the technique in general: Tetrazolium assays rely on reduction of a dye to a coloured formazan, in cell work by metabolically active cells.
[2] abbreviates: HEK293 cells, CC50 (50% cytotoxicity concentration), HEK293, 72 h, CCK8.

On to `CC(C)[C@H](NC(=O)[C@@H](NC(=O)OC(C)(C)C)C1CCCCC1)C(=O)OCCOCCNc1cccc2c1C(=O)N(C1CCC(=O)NC1=O)C2=O` (some centres unmarked) [Compound 15], for which the CC50 at 3 days in series [1] (setting [2]) was determined as 145 µM. The Dmax at SARS-CoV-2 3CL^pro was found to be 89.3%.

For `CC(C)C[C@H](NC(=O)OC(C)(C)C)C(=O)N[C@@H](Cc1ccccc1)C(=O)OCCOCCOCCNc1cccc2c1C(=O)N(C1CCC(=O)NC1=O)C2=O` (some centres unmarked) [Compound 16], the CC50 at 3 days in series [1] (setting [2]) was ~25 µM. Moreover, the CC50 in the series with HEK293 cells came to 25.8 µM. Further, at SARS-CoV-2 3CL^pro, the Dmax stood at 75%.

For `CC(C)(C)OC(=O)N[C@H](C(=O)N[C@@H](Cc1ccccc1)C(=O)NCCCCNC(=O)CCC(=O)Nc1cccc2c1CN(C1CCC(=O)NC1=O)C2=O)C1CCCCC1` (some centres unmarked) [Compound 17], the CC50 at 3 days in series [1] came to 219 µM.

For the compound `CC(C)(C)OC(=O)N[C@H](C(=O)N[C@@H](Cc1ccccc1)C(=O)NCCCCCCNC(=O)CCC(=O)Nc1cccc2c1CN(C1CCC(=O)NC1=O)C2=O)C1CCCCC1` (some centres unmarked) [Compound 18], in series [1], the CC50 at 3 days turned out to be 92.2 µM.

With `CC(C)C[C@H](NC(=O)[C@H](Cc1ccccc1)NC(=O)OC(C)(C)C)C(=O)NCCCCCCNC(=O)CCC(=O)Nc1cccc2c1CN(C1CCC(=O)NC1=O)C2=O` (some centres unmarked) [Compound 19], the CC50 at 3 days in series [1] is 241 µM.

Usually Dmax stands for the greatest extent of degradation seen.

The values above are taken from PMC12027948, “Development of Peptidomimetic PROTACs as Potential Degraders of 3-Chymotrypsin-like Protease of SARS-CoV-2” (International Journal of Molecular Sciences, 2025).
